Assays:
kochia = experiment: Test D preemergence; type: in vivo, Kochia scoparia; settings: for Plant response rating (0 to 100), Kochia: 16 g ai/ha, 0 is no effect, 100 is complete control; for Plant response rating: Kochia: scale 0 to 100
Excerpt: (§1) Seeds of plant species selected from bluegrass (annual bluegrass, Poa annua), blackgrass (Alopecurus myosuroides), canarygrass (Phalaris minor), chickweed (common chickweed, Stellaria media), galium (catchweed bedstraw, Galium aparine), bromegrass, down (downy bromegrass, Bromus tectorum), Russian thistle (Salsola kali), field poppy (Papaver rhoeas), field violet (Viola arvensis), foxtail, green (green foxtail, Setaria viridis), deadnettle (henbit deadnettle, Lamium amplexicaule), ryegrass, Ital. (Italian ryegrass, Lolium multiflorum), kochia (Kochia scoparia), lambsquarters (Chenopodium album), oilseed rape (Brassica napus), pigweed (Amaranthus retroflexus), chamomile (scentless chamomile, Matricaria inodora), speedwell (bird's-eye speedwell, Veronica persica), barley, spring (spring barley, Hordeum vulgare), wheat, spring (spring wheat, Triticum aestivum), buckwheat, wild (wild buckwheat, Polygonum convolvulus), wild mustard (Sinapis arvensis), oat, wild (wild oat, Avena fatua), radish, wild (wild radish, Raphanus raphanistrum), […]), barley, winter (winter barley, Hordeum vulgare), and wheat, winter (winter wheat, Triticum aestivum) were planted into a silt loam soil and treated preemergence with test chemicals formulated in a non-phytotoxic solvent mixture which included a surfactant. At the same time, these species were planted in pots containing Sunshine Redi-Earth® planting medium comprising spaghnum peat moss, vermiculite, starter nutrients and dolomitic limestone and treated with postemergence applications of the test chemicals formulated in the same manner. Plants ranged in height from 2 to 18 cm (1- to 4-leaf stage). Treated plants and controls were maintained in a controlled growth environment for 14 to 21 d after which time all species were compared to controls and visually evaluated. […] A dash (-) response means no test result.

oat, wild = experiment: Test D postemergence; type: in vivo, Avena fatua; settings: scale 0 to 100
Excerpt: as §1

galium = experiment: Test A postemergence; type: in vivo, Galium aparine; settings: 0 to 100 scale (0 no effect, 100 complete control), approx. 10 d
Procedure, shortened: (§2)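 Seeds sown in loam soil–sand blend received a directed preemergence soil spray of test chemical in non-phytotoxic solvent with surfactant; postemergence plants, 2 to 10 cm at one- to two-leaf stage, were sprayed with the same formulation. Injury visually rated versus untreated controls after ~10 d in greenhouse, 0–100 scale.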

ryegrass, Italian = experiment: Test A preemergence; type: in vivo, Lolium multiflorum; settings: 0 to 100 scale (0 no effect, 100 complete control)
Procedure, shortened: as §2

lambsquarters = experiment: Test D postemergence; type: in vivo, Chenopodium album; settings: scale 0 to 100
Excerpt: as §1

pigweed [1] = experiment: Test D preemergence; type: in vivo, Amaranthus retroflexus; settings: for Plant response rating (0 to 100), Pigweed: 16 g ai/ha, 0 is no effect, 100 is complete control; for Plant response rating: Pigweed: scale 0 to 100
Excerpt: as §1

pigweed [2] = experiment: Test D postemergence; type: in vivo, Amaranthus retroflexus; settings: scale 0 to 100
Excerpt: as §1

johnsongrass = experiment: Test C preemergence; type: in vivo, Sorghum halepense; settings: for Plant response rating (scale of 0 to 100 where 0 is no effect and 100 is complete control): Johnsongrass, preemergence; for Johnsongrass plant response rating (0 to 100): Preemergence, visual rating after 13 to 15 d
Excerpt: (§3) Seeds of plant species selected from blackgrass (Alopecurus myosuroides), ryegrass, Italian (Italian ryegrass, Lolium multiflorum), wheat (winter wheat, Triticum aestivum), galium (catchweed bedstraw, Galium aparine), corn (Zea mays), crabgrass, large (large crabgrass, Digitaria sanguinalis), foxtail, giant, (giant foxtail, Setaria faberii), johnsongrass (Sorghum halepense), lambsquarters (Chenopodium album), morningglory (Ipomoea coccinea), nutsedge, yellow (yellow nutsedge, Cyperus esculentus), pigweed (Amaranthus retroflexus), ragweed (common ragweed, Ambrosia elatior), soybean (Glycine max), barnyardgrass (Echinochloa crus-galli), oilseed rape (Brassica napus), waterhemp (common waterhemp, Amaranthus rudis), and velvetleaf (Abutilon theophrasti) were planted into a blend of loam soil and sand and treated preemergence with test chemicals formulated in a non-phytotoxic solvent mixture which included a surfactant. At the same time, plants selected from these crop and weed species and also chickweed (common chickweed, Stellaria media), oat, wild (wild oat, Avena fatua), and kochia (Kochia scoparia), were planted in pots containing Sunshine Redi-Earth® planting medium comprising spaghnum peat moss, vermiculite, starter nutrients and dolomitic limestone and treated with postemergence applications of test chemicals formulated in the same manner. Plants ranged in height from 2 to 18 cm (1- to 4-leaf stage) for postemergence treatments. […] A dash (-) response means no test result.

radish, wild = experiment: Test D postemergence; type: in vivo, Raphanus raphanistrum; settings: scale 0 to 100
Excerpt: as §1

chickweed = experiment: Test D preemergence; type: in vivo, Stellaria media; settings: for Plant response rating (0 to 100), Chickweed: 16 g ai/ha, 0 is no effect, 100 is complete control; for Plant response rating: Chickweed: scale 0 to 100
Excerpt: as §1

ragweed = experiment: Test C preemergence; type: in vivo, Ambrosia elatior; settings: for Ragweed plant response rating (0 to 100): Preemergence, visual rating after 13 to 15 d; for Plant response rating (scale of 0 to 100 where 0 is no effect and 100 is complete control): Ragweed, preemergence
Excerpt: as §3

blackgrass = experiment: Test D preemergence; type: in vivo, Alopecurus myosuroides; settings: for Plant response rating (0 to 100), Blackgrass: 16 g ai/ha, 0 is no effect, 100 is complete control; for Plant response rating: Blackgrass: scale 0 to 100
Excerpt: as §1

bluegrass = experiment: Test D postemergence; type: in vivo, Poa annua; settings: scale 0 to 100
Excerpt: as §1

Fc1ccc(-c2nc(OCC(F)(F)F)n(Cc3ccnc(C(F)(F)F)c3)n2)cc1 [Compound 30]
95: Plant response rating: Kochia (kochia; 125 g ai/ha) | Plant response rating: Lambsquarters (lambsquarters; 62 g ai/ha) | Plant response rating: Lambsquarters (lambsquarters; 125 g ai/ha) | Plant response rating (scale of 0 to 100 where 0 is no effect and 100 is complete control) (johnsongrass; 250 g ai/ha) | Plant response rating: Radish, Wild (radish, wild; 16 g ai/ha) | Plant response rating: Radish, Wild (radish, wild; 31 g ai/ha)
30: Plant response rating (0 to 100), Blackgrass (blackgrass)
100: Plant response rating, Ryegrass, Italian (ryegrass, Italian; 500 g ai/ha, approx. 10 d) | Plant response rating (0 to 100), Pigweed (pigweed [1]) | Plant response rating: Pigweed (pigweed [1]; 62 g ai/ha) | Plant response rating: Pigweed (pigweed [1]; 125 g ai/ha) | Plant response rating: Pigweed (pigweed [2]; 16 g ai/ha) | Plant response rating: Pigweed (pigweed [2]; 31 g ai/ha) | Plant response rating: Pigweed (pigweed [2]; 62 g ai/ha) | Plant response rating: Pigweed (pigweed [2]; 125 g ai/ha) | Plant response rating: Radish, Wild (radish, wild; 125 g ai/ha) | Plant response rating: Chickweed (chickweed; 62 g ai/ha) | Plant response rating: Chickweed (chickweed; 125 g ai/ha)
45: Plant response rating: Blackgrass (blackgrass; 31 g ai/ha)
90: Plant response rating: Kochia (kochia; 62 g ai/ha) | Plant response rating, Galium (galium; 500 g ai/ha) | Plant response rating, Ryegrass, Italian (ryegrass, Italian; 125 g ai/ha) | Plant response rating: Lambsquarters (lambsquarters; 31 g ai/ha) | Plant response rating (scale of 0 to 100 where 0 is no effect and 100 is complete control) (ragweed; 250 g ai/ha)
35: Johnsongrass plant response rating (0 to 100) (johnsongrass; 31 g ai/ha)
60: Plant response rating, Galium (galium; 125 g ai/ha) | Plant response rating: Blackgrass (blackgrass; 62 g ai/ha)
98: Plant response rating: Radish, Wild (radish, wild; 62 g ai/ha)
40: Plant response rating: Oat, Wild (oat, wild; 16 g ai/ha) | Plant response rating: Oat, Wild (oat, wild; 31 g ai/ha)
85: Plant response rating (0 to 100), Kochia (kochia) | Plant response rating: Lambsquarters (lambsquarters; 16 g ai/ha) | Plant response rating (scale of 0 to 100 where 0 is no effect and 100 is complete control) (johnsongrass; 125 g ai/ha)
65: Plant response rating: Oat, Wild (oat, wild; 62 g ai/ha) | Johnsongrass plant response rating (0 to 100) (johnsongrass; 62 g ai/ha) | Ragweed plant response rating (0 to 100) (ragweed; 62 g ai/ha) | Plant response rating: Bluegrass (bluegrass; 16 g ai/ha)
75: Plant response rating: Oat, Wild (oat, wild; 125 g ai/ha) | Plant response rating: Bluegrass (bluegrass; 62 g ai/ha)
80: Plant response rating: Chickweed (chickweed; 31 g ai/ha) | Plant response rating (scale of 0 to 100 where 0 is no effect and 100 is complete control) (ragweed; 125 g ai/ha) | Plant response rating: Bluegrass (bluegrass; 125 g ai/ha)
70: Plant response rating (0 to 100), Chickweed (chickweed) | Plant response rating: Blackgrass (blackgrass; 125 g ai/ha) | Plant response rating: Bluegrass (bluegrass; 31 g ai/ha)
55: Ragweed plant response rating (0 to 100) (ragweed; 31 g ai/ha)

FC(F)(F)COc1nc(-c2ccc(Cl)cc2)nn1Cc1ccnc(C(F)(F)F)c1 [Compound 31]
40: Plant response rating: Blackgrass (blackgrass; 31 g ai/ha)
90: Plant response rating: Kochia (kochia; 62 g ai/ha) | Plant response rating, Galium (galium; 500 g ai/ha) | Plant response rating, Ryegrass, Italian (ryegrass, Italian; 125 g ai/ha) | Plant response rating: Lambsquarters (lambsquarters; 125 g ai/ha) | Plant response rating: Chickweed (chickweed; 31 g ai/ha)
35: Plant response rating: Oat, Wild (oat, wild; 16 g ai/ha) | Plant response rating (0 to 100), Blackgrass (blackgrass)
75: Plant response rating: Oat, Wild (oat, wild; 125 g ai/ha) | Plant response rating: Lambsquarters (lambsquarters; 16 g ai/ha) | Johnsongrass plant response rating (0 to 100) (johnsongrass; 31 g ai/ha) | Plant response rating (scale of 0 to 100 where 0 is no effect and 100 is complete control) (ragweed; 250 g ai/ha) | Plant response rating: Blackgrass (blackgrass; 125 g ai/ha) | Plant response rating: Bluegrass (bluegrass; 62 g ai/ha)
70: Plant response rating: Oat, Wild (oat, wild; 62 g ai/ha) | Plant response rating, Galium (galium; 125 g ai/ha)
60: Plant response rating: Blackgrass (blackgrass; 62 g ai/ha)
45: Plant response rating: Oat, Wild (oat, wild; 31 g ai/ha) | Ragweed plant response rating (0 to 100) (ragweed; 31 g ai/ha)
50: Ragweed plant response rating (0 to 100) (ragweed; 62 g ai/ha) | Plant response rating: Bluegrass (bluegrass; 16 g ai/ha)
95: Plant response rating: Kochia (kochia; 125 g ai/ha) | Plant response rating: Lambsquarters (lambsquarters; 31 g ai/ha) | Plant response rating (scale of 0 to 100 where 0 is no effect and 100 is complete control) (johnsongrass; 250 g ai/ha) | Plant response rating: Radish, Wild (radish, wild; 16 g ai/ha) | Plant response rating: Radish, Wild (radish, wild; 31 g ai/ha) | Plant response rating: Radish, Wild (radish, wild; 62 g ai/ha)
65: Plant response rating (scale of 0 to 100 where 0 is no effect and 100 is complete control) (ragweed; 125 g ai/ha) | Plant response rating: Bluegrass (bluegrass; 31 g ai/ha)
85: Plant response rating: Lambsquarters (lambsquarters; 62 g ai/ha) | Plant response rating (scale of 0 to 100 where 0 is no effect and 100 is complete control) (johnsongrass; 125 g ai/ha) | Plant response rating: Bluegrass (bluegrass; 125 g ai/ha)
100: Plant response rating, Ryegrass, Italian (ryegrass, Italian; 500 g ai/ha) | Plant response rating (0 to 100), Pigweed (pigweed [1]) | Plant response rating: Pigweed (pigweed [1]; 62 g ai/ha) | Plant response rating: Pigweed (pigweed [1]; 125 g ai/ha) | Plant response rating: Pigweed (pigweed [2]; 16 g ai/ha) | Plant response rating: Pigweed (pigweed [2]; 31 g ai/ha) | Plant response rating: Pigweed (pigweed [2]; 62 g ai/ha) | Plant response rating: Pigweed (pigweed [2]; 125 g ai/ha) | Plant response rating: Radish, Wild (radish, wild; 125 g ai/ha) | Plant response rating: Chickweed (chickweed; 62 g ai/ha) | Plant response rating: Chickweed (chickweed; 125 g ai/ha)
80: Plant response rating (0 to 100), Kochia (kochia) | Johnsongrass plant response rating (0 to 100) (johnsongrass; 62 g ai/ha) | Plant response rating (0 to 100), Chickweed (chickweed)

Source: patent US10681909B2, “Herbicidal triazoles” (FMC Corporation, priority 2014, dated 2020)
